Activity calls are given as the source filed them. No cut-off for these calls is given here.

Kd and Activity data for eleven compounds are collected here from ChEMBL document CHEMBL1138537, “Small-molecule scaffolds for CYP51 inhibitors identified by high-throughput screening and defined by X-ray crystallography” (Antimicrob Agents Chemother, 2007).

Data set [1] concerns the target T1, Sterol 14alpha-demethylase (Mycobacterium tuberculosis, UniProt P9WPP9).
T1 sequence (P9WPP9 whole entry): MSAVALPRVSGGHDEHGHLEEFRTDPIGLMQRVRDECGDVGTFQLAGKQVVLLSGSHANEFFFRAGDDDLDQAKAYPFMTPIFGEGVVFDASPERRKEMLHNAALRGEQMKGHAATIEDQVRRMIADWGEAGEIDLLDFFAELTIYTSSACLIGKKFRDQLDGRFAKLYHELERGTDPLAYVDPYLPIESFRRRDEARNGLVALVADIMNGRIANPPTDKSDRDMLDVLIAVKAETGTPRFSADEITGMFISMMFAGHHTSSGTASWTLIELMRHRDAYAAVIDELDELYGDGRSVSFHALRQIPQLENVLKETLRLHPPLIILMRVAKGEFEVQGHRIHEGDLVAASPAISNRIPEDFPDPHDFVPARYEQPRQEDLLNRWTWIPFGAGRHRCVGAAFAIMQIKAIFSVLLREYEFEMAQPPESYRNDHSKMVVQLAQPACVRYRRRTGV

Data set [2] concerns the target T1, Sterol 14alpha-demethylase. The source holds these as a separate data set.
In data set [3] the test system is Mycobacterium tuberculosis. Put plainly: Antimycobacterial activity against Mycobacterium tuberculosis H37Rv at 100 uM after 4 days by alamar blue assay. It is filed as functional, organism-based.
The target in data set [4] is T2, Steroid C26-monooxygenase (Mycobacterium tuberculosis, UniProt P9WPP1).
T2 sequence (P9WPP1 whole entry): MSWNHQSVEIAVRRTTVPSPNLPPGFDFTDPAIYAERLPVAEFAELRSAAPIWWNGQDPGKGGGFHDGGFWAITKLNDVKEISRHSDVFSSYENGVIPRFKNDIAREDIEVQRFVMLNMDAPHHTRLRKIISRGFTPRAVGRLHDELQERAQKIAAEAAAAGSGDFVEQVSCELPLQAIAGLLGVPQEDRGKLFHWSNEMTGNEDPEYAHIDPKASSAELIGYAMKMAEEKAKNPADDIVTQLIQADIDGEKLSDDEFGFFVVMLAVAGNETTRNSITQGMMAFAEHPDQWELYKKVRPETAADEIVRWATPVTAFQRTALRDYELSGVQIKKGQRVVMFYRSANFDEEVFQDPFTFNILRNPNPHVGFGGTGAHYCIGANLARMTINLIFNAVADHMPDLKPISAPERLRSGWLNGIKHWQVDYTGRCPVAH

In data set [5] the test system is Mycobacterium tuberculosis. The data set can be described thus: Antimycobacterial activity against Mycobacterium tuberculosis H37Rv at 200 uM after 4 days by alamar blue assay. It is filed as functional, organism-based. (The colour change of resazurin is a common sign of viable cells or microbes.)
Another data set deals with T3, Cytochrome P450 130 (Mycobacterium tuberculosis, UniProt P9WPN5).
T3 sequence (P9WPN5 whole entry): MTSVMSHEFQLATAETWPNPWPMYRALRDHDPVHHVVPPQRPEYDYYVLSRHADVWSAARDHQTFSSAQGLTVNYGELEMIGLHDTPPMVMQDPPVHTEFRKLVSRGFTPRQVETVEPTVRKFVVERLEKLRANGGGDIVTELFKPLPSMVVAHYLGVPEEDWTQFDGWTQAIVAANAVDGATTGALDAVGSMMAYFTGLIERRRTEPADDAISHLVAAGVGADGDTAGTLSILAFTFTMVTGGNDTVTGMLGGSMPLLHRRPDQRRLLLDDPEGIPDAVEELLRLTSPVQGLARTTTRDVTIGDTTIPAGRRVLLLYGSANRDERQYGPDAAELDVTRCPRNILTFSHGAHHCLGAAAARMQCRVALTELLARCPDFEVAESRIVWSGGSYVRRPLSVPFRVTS

Data set [6] has as its system Mycobacterium tuberculosis. Put plainly: Antimycobacterial activity against Mycobacterium tuberculosis H37Rv at 500 uM after 4 days by alamar blue assay. The format is functional, organism-based.
Data set [7] deals with Mycobacterium tuberculosis. The data set can be described thus: Antimycobacterial activity against Mycobacterium tuberculosis H37Rv at 250 uM after 4 days by alamar blue assay. It is filed as functional, organism-based.

A word on the Kd: it is the concentration at which binding is half-saturated. The low end stands for a tighter complex, the high end for a looser complex. `NCC(=O)N1c2ccccc2Sc2ccccc21`: in data set [1], the Kd came to 5 µM. This lies in the single-digit micromolar range.

In data set [2], `O=C(c1ccc(O)cc1)c1ccc(O)cc1` yielded a Kd of 28 µM. Further, the result in data set [3] and in data set [5] was Active. The Activity result (in data set [4] (mycobacterium tuberculosis); at Cytochrome P450 130 (mycobacterium tuberculosis)) was “Not Active” in each case.

Turning to `O=C(Nc1ccncc1)C1(c2ccccc2)CCOCC1`, the Kd in data set [1] was determined as 5 µM.

Take `Nc1ccc(NS(=O)(=O)c2ccc(Cl)cc2)cc1`: in data set [1], the Kd turned out to be 5 µM.

As for `CCC(C(=O)Nc1ccncc1)c1ccccc1` (stereo not drawn), the figures for the Kd (in data set [4]; on Cytochrome P450 130) were 2000 µM and 260 µM, respectively. Moreover, the outcome in data set [6] and in data set [7] was Active.

In turn, `COc1ccccc1C(CCN)c1ccco1` (stereo not drawn) gave a dissociation constant (Kd) in data set [1] of 5 µM.

Take `O=C1c2cc(O)ccc2-c2ccc(O)cc21`: the Kd in data set [2] was 25 µM.

Consider `CCC1(C)CC(CCN)(c2ccc(OC)cc2)CCO1` (stereo not drawn), for which the Kd in data set [1] was determined as 5 µM.

Turning to `O=C(Nc1ccncc1)C(NS(=O)(=O)c1cccc2nsnc12)c1ccccc1` (stereo not drawn), binding in data set [1] was characterised by a dissociation constant (Kd) of 5 µM.

In turn, `c1ccc(-c2c[nH]cn2)cc1` showed a dissociation constant Kd in data set [2] of 1.3 µM.

The compound `C[C@]12CC[C@@H]3c4ccc(O)cc4CC[C@H]3[C@@H]1C[C@@H](O)[C@@H]2O` [ESTRIOL] showed a Kd in data set [2] of 100 µM.
